Experimental data published in patent US20060287320A1, “Preparation of thioarabinofuranosyl compounds and use thereof” (Southern Research Institute, priority 1998, published 2006).

Columns and labels:
CAK1-1 Renal = experiment: In vitro IC50, 72 hour exposure, Natural Red assay; format: cell-based; details: read-out: IC50 Molar Values
Experimental: (§1) EXAMPLE 3 The following in vitro tests were carried out.
(§2) The above tests were carried out with a 72 hour exposure to the compound using Natural Red assay for all cell lines except SK-MEL 28 which was done with SRB assay.

DLD-1 Colon = experiment: In vitro IC50, 72 hour exposure, Natural Red assay; format: cell-based; details: read-out: IC50 Molar Values
Experimental: as §1, §2

LOX IMV1 Melanoma = experiment: In vitro IC50, 72 hour exposure, Natural Red assay; format: cell-based; details: read-out: IC50 Molar Values
Experimental: as §1, §2

NC1-H23 Lung = experiment: In vitro IC50, 72 hour exposure, Natural Red assay; format: cell-based; details: read-out: IC50 Molar Values
Experimental: as §1, §2

PC-3 Prostate = experiment: In vitro IC50, 72 hour exposure, Natural Red assay; format: cell-based; details: read-out: IC50 Molar Values
Experimental: as §1, §2

SNB-7 (CNS) = experiment: In vitro IC50, 72 hour exposure, Natural Red assay; format: cell-based; details: read-out: IC50 Molar Values
Experimental: as §1, §2

ZR-75-1 Mammary = experiment: In vitro IC50, 72 hour exposure, Natural Red assay; format: cell-based; details: read-out: IC50 Molar Values
Experimental: as §1, §2

SK-MEL 28 Melanoma = experiment: In vitro IC50, 72 hour exposure, SRB assay; format: cell-based; details: read-out: IC50 Molar Values
Experimental: as §1, §2

SC CAKI-1 Renal Tumor = experiment: Response of SC CAKI-1 Renal Tumor to Treatment; format: in vivo; details: Q 4H × 3 day 7-15
Experimental: (§3) The following in vivo tests were carried out to illustrate the effectiveness of the compounds of the present invention.

SC HCT-116 Colon Tumor = experiment: Response of SC HCT-116 Colon Tumor to Treatment; format: in vivo; details: Q 4H × 3 day 6-14
Experimental: as §3

[1] = Phosphorylation in cell-free CEM extracts, wild-type; format: biochemical; details: wild-type CEM cell extract; 1 μm substrate
Experimental: (§4) The number in parentheses is the number of experiments performed. […] At various times after the initiation of the experiment, an aliquot of each reaction volume was removed and placed on DE-81 filters. The filters were washed with 1 mM ammonium formate and ethanol, and the amount of radioactivity on each filter was determined. […] This assay was verified by HPLC.

[2] = Phosphorylation in cell-free CEM extracts, araC-resistant; format: biochemical
Experimental: as §4

CEM cells [3] = experiment: Complete metabolism of dCyd, T-dCyd, araC and T-araC in CEM cells; format: cell-based; details: 100 nM, incubation 1 hour
Experimental: The complete metabolism of each compound was determined: The medium was analyzed for the original compound, its deaminated form using reverse phase HPLC, and H20; the acid-soluble extract was analyzed by SAX HPLC for phosphorylated metabolites; and the incorporation of radioactivity into acid-precipitable material (DNA) was determined.

CEM cells [4] = experiment: Effect of F-dUrd on metabolism (deamination) in CEM cells; format: cell-based; details: 100 nM, incubation time 8 hours
Experimental: The complete metabolism of each compound was determined as described in the legend to Table 12, and the percent of deaminated metabolites for each compound was determined.

[5] = test system: DNA synthesis in CEM cells; experiment: Effect on DNA synthesis ([3H]dThd incorporation) in CEM cells; format: cell-based; details: 150 nM, average of two experiments
Experimental: (§5) Radiolabeled precursors of DNA [^3H]dThd, RNA ([^3H]Urd), or protein ([^3H]leucine) were added to each treatment 30 minutes after the addition of each compound. Samples were taken 1, 2, 3 and 4 hours after the addition of radiolabeled precursors, and the incorporation of radioactivity into RNA, DNA, or protein were determined as described (Parker et al, Biochem. Pharmacol. 55: 1673-1681, 1998). Each number represents the average of two experiments.

[6] = test system: RNA synthesis in CEM cells; experiment: Effect on RNA synthesis ([3H]Urd incorporation) in CEM cells; format: cell-based; details: 150 nM, average of two experiments
Experimental: as §5

[7] = test system: protein synthesis in CEM cells; experiment: Effect on protein synthesis ([3H]leucine incorporation) in CEM cells; format: cell-based; details: 150 nM, average of two experiments
Experimental: as §5

CEM cells (wild-type) = experiment: Inhibition of CEM cell growth, wild-type; details: read-out: IC50 (nM) Wild-type; wild-type CEM cells; cell numbers by Coulter Counter; mean and standard deviation from 3 experiments
Experimental: (§6) CEM cells were incubated with various concentrations of each compound and the effect on. cell numbers was determined using a Coulter Counter. The IC50 was determined from a plot of the percent of control growth versus drug concentration. The data presented are the mean and standard deviation from 3 separate experiments.

araC-resistant CEM cells = experiment: Inhibition of CEM cell growth, araC-resistant; details: read-out: IC50 (nM) araC-resistant; araC-resistant CEM cells; cell numbers by Coulter Counter; mean and standard deviation from 3 experiments
Experimental: as §6

## Nc1ccn([C@@H]2O[C@H](CO)[C@@H](O)[C@@H]2O)c(=O)n1 [araC, cytosine arabinoside]
CAK1-1 Renal
  IC50: 600 nM
DLD-1 Colon
  IC50: 5000 nM
LOX IMV1 Melanoma
  IC50: 1000 nM
NC1-H23 Lung
  IC50: 300 nM
PC-3 Prostate
  IC50: 5000 nM
SNB-7 (CNS)
  IC50: 200 nM
ZR-75-1 Mammary
  IC50: 400 nM
SK-MEL 28 Melanoma
  IC50: 2000 nM
SC CAKI-1 Renal Tumor; 13.3 Mg/Kg IP
  Days Delay (T − C): 11.0 days
  Days to 3 Doubling: 20.5 days
  Non-Specific Deaths/Total: 0/6
  Tumor Free Surv/Total: 0/6
  Tumor Regression Number of Complete: 0
  Tumor Regression Number of Partial: 0
SC CAKI-1 Renal Tumor; 20 Mg/Kg IP
  Days Delay (T − C): 6.2 days
  Days to 3 Doubling: 15.7 days
  Non-Specific Deaths/Total: 5/6
  Toxicity remark under Days Delay (T − C): (Toxic)
  Tumor Free Surv/Total: 0/6
  Tumor Regression Number of Complete: 0
  Tumor Regression Number of Partial: 0
SC CAKI-1 Renal Tumor; 30 Mg/Kg IP
  Days Delay (T − C): 16.2 days
  Days to 3 Doubling: 25.7 days
  Non-Specific Deaths/Total: 5/6
  Toxicity remark under Days Delay (T − C): (Toxic)
  Tumor Free Surv/Total: 0/6
  Tumor Regression Number of Complete: 0
  Tumor Regression Number of Partial: 0
SC HCT-116 Colon Tumor; 9 Mg/Kg IP
  Days Delay (T − C): 2.0 days
  Days to 2 Doubling: 10.9 days
  Non-Specific Deaths/Total: 0/6
  Tumor Free Surv/Total: 0/6
  Tumor Regression Number of Complete: 0
  Tumor Regression Number of Partial: 0
SC HCT-116 Colon Tumor; 13.3 Mg/Kg IP
  Days Delay (T − C): 3.3 days
  Days to 2 Doubling: 12.2 days
  Non-Specific Deaths/Total: 0/6
  Tumor Free Surv/Total: 0/6
  Tumor Regression Number of Complete: 0
  Tumor Regression Number of Partial: 0
[1]
  Phosphorylation, Wild-type: 94 pmoles/mg protein/minute
[2]; araC-resistant CEM cell extract, 1 μm substrate
  Phosphorylation, araC-resistant CEM cells: 1.2 pmoles/mg protein/minute
[2]; phosphorylation in araC-resistant vs wild-type CEM extract
  Percent of wild-type: 1.3% of wild-type
CEM cells [3]
  DNA (percent of total): 0.4% of total
  Deaminated Compound (percent of total): 0% of total
  H20 (percent of total): 0% of total
  Original Compound (percent of total): 87% of total
  nucleoside-TP (percent of total): 13% of total
CEM cells [4]; F-dUrd 0 μM
  Percent Deamination: 0%
CEM cells [4]; F-dUrd 10 μM
  Percent Deamination: 10%
[5]
  DNA synthesis, Percent of control: 8% of control
[6]
  RNA synthesis, Percent of control: 96% of control
[7]
  protein synthesis, Percent of control: 96% of control
CEM cells (wild-type)
  IC50: 6 ± 3 nM
araC-resistant CEM cells
  IC50: 800 ± 400 nM
